The values below come from the PolyMetriX glass transition set.

Turning to `*/C=C/C1CC(*)C2C3CCC(C3)C12` (repeat unit), the glass transition temperature was determined as 207.40 °C.
In the case of `*C(=S)Nc1ccc(Oc2ccc(NC(=S)N3C(=O)c4ccc(C(c5ccc6c(c5)C(=O)N(*)C6=O)(C(F)(F)F)C(F)(F)F)cc4C3=O)cc2)cc1` (repeat unit), the glass transition temperature was 260.00 °C.
The result for `*C1CCC(N2C(=O)c3ccc(-c4ccc5c(c4)C(=O)N(*)C5=O)cc3C2=O)CC1` (repeat unit) reads 360.00 °C.
Compound `*C1CCC(N2C(=O)c3ccc(S(=O)(=O)c4ccc5c(c4)C(=O)N(*)C5=O)cc3C2=O)CC1` (repeat unit) had a glass transition temperature of 363.00 °C.
The result for `*CC1CC2CC1C1CCC(CN3C(=O)c4ccc(C(c5ccc6c(c5)C(=O)N(*)C6=O)(C(F)(F)F)C(F)(F)F)cc4C3=O)C21` (repeat unit) reads 207.00 °C.
The result for `*CC1CCCC(CN2C(=O)c3ccc(-c4ccc5c(c4)C(=O)N(*)C5=O)cc3C2=O)C1` (repeat unit) reads 234.00 °C.
`*CCCCCCCCCCCCN1C(=O)c2ccc(C(c3ccc4c(c3)C(=O)N(*)C4=O)(C(F)(F)F)C(F)(F)F)cc2C1=O` (repeat unit) showed a glass transition temperature of 101.00 °C.
The result for `*CCCCCCCN1C(=O)c2ccc(C(c3ccc4c(c3)C(=O)N(*)C4=O)(C(F)(F)F)C(F)(F)F)cc2C1=O` (repeat unit) reads 165.00 °C.
Regarding `*CCCCN1C(=O)c2ccc(C(c3ccc4c(c3)C(=O)N(*)C4=O)(C(F)(F)F)C(F)(F)F)cc2C1=O` (repeat unit), the glass transition temperature was determined as 190.00 °C.
The result for `*CCN(CCN1C(=O)c2ccc(C(c3ccc4c(c3)C(=O)N(*)C4=O)(C(F)(F)F)C(F)(F)F)cc2C1=O)c1ccc(/N=N/c2ccc([N+](=O)[O-])cc2)cc1` (repeat unit) reads 210.00 °C; that for `*Oc1ccc(C(=O)c2cccc(C(=O)c3ccc(*)c(C(C)C)c3)c2)cc1C` (repeat unit), 147.00 °C.
In turn, `*Oc1ccc(Oc2ccc(C(=O)c3cccc(C(=O)c4ccc(*)cc4)c3)cc2)cc1` (repeat unit) had a glass transition temperature of 148.00 °C.
The result for `*c1cc(N2C(=O)c3ccc(P(=O)(c4ccccc4)c4ccc5c(c4)C(=O)N(*)C5=O)cc3C2=O)cc(C(F)(F)F)c1` (repeat unit) reads 317.00 °C; that for `*c1ccc(-c2ccc(N3C(=O)c4ccc(S(=O)(=O)c5ccc6c(c5)C(=O)N(*)C6=O)cc4C3=O)cc2C(F)(F)F)c(C(F)(F)F)c1` (repeat unit), 320.00 °C; that for `*c1ccc(C(c2ccccc2)c2ccc(N3C(=O)c4ccc(-c5ccc6c(c5)C(=O)N(*)C6=O)cc4C3=O)cc2)cc1` (repeat unit), 315.00 °C.
`*c1ccc(C(c2ccccc2)c2ccc(N3C(=O)c4ccc(S(=O)(=O)c5ccc6c(c5)C(=O)N(*)C6=O)cc4C3=O)cc2)cc1` (repeat unit): the glass transition temperature was found to be 305.00 °C.
The figure for `*c1ccc(C2(c3ccc(N4C(=O)c5ccc(-c6ccc7c(c6)C(=O)N(*)C7=O)cc5C4=O)cc3)c3ccccc3-c3ccccc32)cc1` (repeat unit) is 388.00 °C; for `*c1ccc(Cc2ccc(N3C(=O)c4ccc([Si](C)(C)c5ccc6c(c5)C(=O)N(*)C6=O)cc4C3=O)cc2)cc1` (repeat unit) it is 280.00 °C.
The figure for `*c1ccc(N2C(=O)c3ccc(-c4ccc5c(c4)C(=O)N(c4ccc6[nH]c(*)nc6c4)C5=O)cc3C2=O)cc1` (repeat unit) is 397.50 °C; for `*c1ccc(OCCCCCOc2ccc(N3C(=O)c4ccc(-c5cccc6c5C(=O)N(*)C6=O)cc4C3=O)cc2)cc1` (repeat unit) it is 208.00 °C.
On to `*c1ccc(Oc2cc3ccccc3cc2Oc2ccc(N3C(=O)c4ccc(-c5ccc6c(c5)C(=O)N(*)C6=O)cc4C3=O)cc2)cc1` (repeat unit), for which the glass transition temperature turned out to be 253.50 °C.
The compound `*c1ccc(Oc2ccc(C(=O)c3cccc(C(=O)c4ccc(Oc5ccc(N6C(=O)c7ccc(-c8ccc9c(c8)C(=O)N(*)C9=O)cc7C6=O)cc5)cc4)c3)cc2)cc1` (repeat unit) came in with a glass transition temperature of 222.00 °C.
Take `*c1ccc(Oc2ccc(C(=O)c3cccc(C(=O)c4ccc(Oc5ccc(N6C(=O)c7ccc(Oc8ccc(Sc9ccc(Oc%10ccc%11c(c%10)C(=O)N(*)C%11=O)cc9)cc8)cc7C6=O)cc5)cc4)c3)cc2)cc1` (repeat unit): the glass transition temperature was 192.00 °C.
The figure for `*c1ccc(Oc2ccc(C(=O)c3cccc(C(=O)c4ccc(Oc5ccc(N6C(=O)c7ccc([Si](C)(C)c8ccc9c(c8)C(=O)N(*)C9=O)cc7C6=O)cc5)cc4)c3)cc2)cc1` (repeat unit) is 208.00 °C; for `*c1ccc(Oc2ccc(N3C(=O)c4ccc(C(c5ccc6c(c5)C(=O)N(c5ncc(*)s5)C6=O)(C(F)(F)F)C(F)(F)F)cc4C3=O)cc2)cc1` (repeat unit) it is 268.20 °C; for `*c1ccc(Oc2ccc(N3C(=O)c4ccc(S(=O)(=O)c5ccc6c(c5)C(=O)N(*)C6=O)cc4C3=O)cc2Br)c(Br)c1` (repeat unit) it is 281.00 °C.
The result for `*c1ccc(Oc2ccc(Oc3ccc(Oc4ccc(N5C(=O)c6ccc(-c7ccc8c(c7)C(=O)N(*)C8=O)cc6C5=O)cc4)cc3)cc2)cc1` (repeat unit) reads 228.51 °C.
The figure for `*c1ccc(Oc2ccccc2Oc2ccc(N3C(=O)c4ccc(S(=O)(=O)c5ccc6c(c5)C(=O)N(*)C6=O)cc4C3=O)cc2C(F)(F)F)c(C(F)(F)F)c1` (repeat unit) is 255.00 °C.
The compound `*c1ccc2c(c1)C(=O)N(c1cc(-c3ccc(O)c(N4C(=O)c5ccc(C(*)(C(F)(F)F)C(F)(F)F)cc5C4=O)c3)ccc1O)C2=O` (repeat unit) gave a glass transition temperature of 370.00 °C.
In the case of `*c1ccc2c(c1)C(=O)N(c1cc(N3C(=O)c4ccc(C(*)(C(F)(F)F)C(F)(F)F)cc4C3=O)c(O)cc1O)C2=O` (repeat unit), the glass transition temperature amounted to 324.00 °C.
The figure for `*c1ccc2c(c1)C(=O)N(c1ccc(-c3ccc(N4C(=O)c5ccc(C(*)(C(F)(F)F)C(F)(F)F)cc5C4=O)c(O)c3)cc1O)C2=O` (repeat unit) is 358.00 °C.
In the case of `*c1ccc2c(c1)C(=O)N(c1ccc(-c3ccc(N4C(=O)c5ccc(C(*)(C(F)(F)F)C(F)(F)F)cc5C4=O)c(OCCCCCCOc4ccc(/C=C/c5ccc(F)cc5)cc4)c3)cc1OCCCCCCOc1ccc(/C=C/c3ccc(F)cc3)cc1)C2=O` (repeat unit), the glass transition temperature turned out to be 140.00 °C.
The result for `*c1ccc2c(c1)C(=O)N(c1ccc(C3(c4ccc(N5C(=O)c6ccc(C(*)(C(F)(F)F)C(F)(F)F)cc6C5=O)c(F)c4)c4ccccc4-c4ccccc43)cc1F)C2=O` (repeat unit) reads 352.00 °C; that for `*c1ccc2c(c1)C(=O)N(c1ccc(N(c3ccc(/C=C/c4ccc([N+](=O)[O-])cc4)cc3)c3ccc(N4C(=O)c5ccc(C(*)(C(F)(F)F)C(F)(F)F)cc5C4=O)cc3)cc1)C2=O` (repeat unit), 290.00 °C.
As to `*c1ccc2c(c1)C(=O)N(c1ccc(N3C(=O)c4ccc(-c5c(-c6ccccc6)c(-c6ccccc6)c(-c6ccc(Oc7ccc(-c8c(-c9ccccc9)c(-c9ccccc9)c(*)c(-c9ccccc9)c8-c8ccccc8)cc7)cc6)c(-c6ccccc6)c5-c5ccccc5)cc4C3=O)cc1)C2=O` (repeat unit), the glass transition temperature amounted to 353.00 °C.
Compound `*c1ccc2c(c1)C(=O)N(c1ccc(Oc3ccc(-c4ccc(Oc5ccc(N6C(=O)c7ccc(C(*)(C(F)(F)F)C(F)(F)F)cc7C6=O)cc5)cc4)cc3)cc1)C2=O` (repeat unit) displayed a glass transition temperature of 288.00 °C.
The figure for `*c1ccc2c(c1)C(=O)N(c1ccc(Oc3ccc(C(=O)c4cccc(C(=O)c5ccc(Oc6ccc(N7C(=O)c8ccc(C(*)(C(F)(F)F)C(F)(F)F)cc8C7=O)cc6C(F)(F)F)cc5)n4)cc3)c(C(F)(F)F)c1)C2=O` (repeat unit) is 206.40 °C; for `*c1ccc2c(c1)C(=O)N(c1ccc(Oc3ccc(C(c4ccc(Oc5ccc(N6C(=O)c7ccc(C(*)(C(F)(F)F)C(F)(F)F)cc7C6=O)cc5C(F)(F)F)cc4)(C(F)(F)F)C(F)(F)F)cc3)c(C(F)(F)F)c1)C2=O` (repeat unit) it is 234.00 °C.
The figure for `*c1ccc2c(c1)C(=O)N(c1ccc(Oc3ccc(N4C(=O)c5ccc(C(*)(C(F)(F)F)C(F)(F)F)cc5C4=O)cc3Br)c(Br)c1)C2=O` (repeat unit) is 299.00 °C; for `*c1ccc2c(c1)C(=O)N(c1ccc(Oc3ccc(N4C(=O)c5ccc(C(*)O)cc5C4=O)cc3)cc1)C2=O` (repeat unit) it is 250.00 °C.
Consider `*c1ccc2c(c1)C(=O)N(c1ccc(Oc3ccc(N4C(=O)c5ccc(C(F)(F)C(F)(F)C(*)(F)F)cc5C4=O)cc3)cc1)C2=O` (repeat unit), for which the glass transition temperature is 222.00 °C.
`*c1ccc2c(c1)C(=O)N(c1ccc(Oc3ccc(Oc4ccc(N5C(=O)c6ccc(C(*)(C(F)(F)F)C(F)(F)F)cc6C5=O)cc4)cc3)c(C(F)(F)F)c1)C2=O` (repeat unit) yielded a glass transition temperature of 260.80 °C.
The figure for `*c1ccc2c(c1)C(=O)N(c1ccc(Oc3ccc(S(=O)(=O)c4ccc(Oc5ccc(N6C(=O)c7ccc(C(*)(C(F)(F)F)C(F)(F)F)cc7C6=O)cc5)cc4)cc3)cc1)C2=O` (repeat unit) is 276.50 °C; for `*c1ccc2c(c1)C(=O)N(c1ccc(Oc3ccc4ccc(Oc5ccc(N6C(=O)c7ccc(C(*)(C(F)(F)F)C(F)(F)F)cc7C6=O)cc5)cc4c3)cc1)C2=O` (repeat unit) it is 302.30 °C; for `*c1ccc2c(c1)C(=O)N(c1ccc(S(=O)(=O)c3ccc(N4C(=O)c5ccc(C(F)(F)C(F)(F)C(*)(F)F)cc5C4=O)cc3)cc1)C2=O` (repeat unit) it is 259.00 °C.
For `*c1ccc2c(c1)C(=O)N(c1ccc(S(=O)(=O)c3ccc(S(=O)(=O)c4ccc(S(=O)(=O)c5ccc(N6C(=O)c7ccc(C(*)(C(F)(F)F)C(F)(F)F)cc7C6=O)cc5)cc4)cc3)cc1)C2=O` (repeat unit), the glass transition temperature is 327.00 °C.
`*c1ccc2c(c1)C(=O)N(c1cccc(Oc3ccc(N4C(=O)c5ccc(C(*)(C(F)(F)F)C(F)(F)F)cc5C4=O)cc3)c1)C2=O` (repeat unit) showed a glass transition temperature of 260.00 °C.
